Values quoted from earlier work, collected in US20080168569A1, “Non-invasive methods and related compositions for identifying compounds that modify in vivo aggregations of disease-related polypeptides” (priority 2004, published 2008).

System: truncated DRPLA proteins that contain an expanded-polyglutamine domain
Conditions: in vitro; transglutaminase inhibitors

SMILES	formation of cellular aggregates of truncated DRPLA proteins
NCCSSCCN [cystamine]	inhibit the formation of cellular aggregates
CN(C)c1cccc2c(S(=O)(=O)NCCCCCN)cccc12 [monodansyl cadaverine]	inhibit the formation of cellular aggregates
